Literature values, collected in patent US20160158274A1, “COMPOSITION FOR MUCOUS DISPERSION OR HYDRATION, CONTAINING POLY-r-[sequence] ACID” (BIOLEADERS CORPORATION, priority 2013, published 2016).

System: mucin
Conditions: mucin in cystic fibrosis

O=C(O)CN(CCN(CC(=O)O)CC(=O)O)CC(=O)O [EDTA]
dispersion of aggregated mucin: assist in dispersion of mucin
